In one assay the test system is NIH3T3 fibroblasts. As to the kind of experiment: Inhibition test of compounds on NIH3T3 fibroblasts (MTT method). Format: cell-based. The note with it: for Multiple: multiple of activity versus fluorofenidone from IC50 values; for IC50: MTT, relative to fluorofenidone on a certain plate. The procedure: Inhibition Test of Compounds on NIH3T3 Fibroblasts
An MTT method is used and comprises steps of: culturing cells in DMEM culture medium including 5% calf serum and preparing the cells into cell suspension of 3×10^4/ml; inoculating in 96-well plate according to 100 μl/well; transferring new culture medium including compounds with different concentration, fluorofenidone and 1% calf serum after cells are adhered, wherein three repeated wells are provided for each concentration; respectively adding 100 μl of MTT solution in each well after 48 hours and 72 hours of administrating (the culture medium is prepared into 5 mg/ml and kept in dark after filtering), sucking out MTT after 4 hours; adding 150 μl of DMSO which is the dissolving liquid of MTT; after 10 min and MTT is completely dissolved, measuring OD value by ELISA reader; calculating IC50 values of fluorofenidone and measured compounds according to inhibition ratio; calculating multiple of activities of measured compounds and fluorofenidone according to IC50 values of fluorofenidone and measured compounds; and obtaining relative IC50 value of measured compounds according to multiple and IC50 value of fluorofenidone on a certain plate.

The subject of assay [1] is rat unilateral ureteral obstruction renal fibrosis model. As to the kind of experiment: Rat unilateral ureteral obstruction renal fibrosis model. It is filed as in vivo. The procedure:
Observation of Treatment Effect of Compound 13 in a Rat Unilateral Ureteral Obstruction Renal Fibrosis Model
(1) Randomization: nine rats are divided into three groups at random, namely a normal group (n=3); a model group (n=3) and a treatment group (n=3) treated by compound 13 of 15 mg/kg; three rats are in a hutch; and the experimental animals are adaptively fed for two days. […]
HE stained slices of renal tissues are successively observed in fives fields of view of renal tubulointerstitium on upper left side, upper right side, lower left side, lower right side and middle portion by a low power lens and are evaluated according to eight indexes of renal interstitium lesion: renal tubular epithelial cell vacuolar degeneration, renal tubular ectasia, renal tubular atrophy, red cell cast, protein cast, interstitial edema, interstitial fibrosis and interstitial inflammatory cell infiltration; an average value is calculated as the index of renal tubulointerstitial lesion of the sample; and the evaluation standard is based on the reference of Radford M G Jr, Donadio J V Jr, Bergstralh E J, et al. Predicting renal outcome in IgA nephropathy. […]
Masson staining slices of renal tissues are observed in 20 fields of vision for each sample at random under 400X light microscope; percent of blue-stain collagens in the fields of vision is calculated; an average value is determined after semi-quantitative evaluation: no positive staining, 0; <25%, 1; 25-50%, 2; 50-75%, 3; >75%, 4; and the evaluation standard is based on references. […]

[2] abbreviates: Mus musculus, NIH3T3, 48 h, 48 hours after administration.
Setting [3] is: Mus musculus, NIH3T3, 72 h, 72 hours after administration.

Data on twelve compounds can be found in patent US8426407B2, “Preparation of 1-(substituted aryl)-5-trifluoromethyl-2-(1H)pyridone compounds and salts thereof and their applications” (Central South University, priority 2009, dated 2013).

With `CN1CCN(CCCNc2ccc(-n3cc(C(F)(F)F)ccc3=O)c(Cl)c2)CC1` [Compound 1, 1-(2-chloro-4-((3-(4-methylpiperazin-1-yl)propyl)amino)phenyl)-5-(trifluoromethyl)pyridin-2(1H)-one], the Multiple worked out at 15.50 in the assay with NIH3T3 fibroblasts (48 hours) and 21.60 with NIH3T3 fibroblasts (72 hours). In addition, the 50% inhibitory concentration (IC50) came to 286 µM with NIH3T3 fibroblasts (setting [2]) and 163 µM in the assay with NIH3T3 fibroblasts (setting [3]).

As to `O=c1ccc(C(F)(F)F)cn1-c1ccc(NCCCN2CCOCC2)cc1Cl` [Compound 2, 1-(2-chloro-4-((3-morpholinylpropyl)amino)phenyl)-5-(trifluoromethyl)pyridin-2(1H)-one], the Multiple in the assay with NIH3T3 fibroblasts (48 hours) turned out to be 18.36; in the assay on NIH3T3 fibroblasts (72 hours), 21.87. Moreover, the IC50 with NIH3T3 fibroblasts (setting [2]) came out at 241 µM; in the assay with NIH3T3 fibroblasts (setting [3]) it was 161 µM.

As for `O=c1ccc(C(F)(F)F)cn1-c1ccc(NCCCN2CCCCC2)cc1Cl` [Compound 3, 1-(2-chloro-4-((3-piperidin-1-yl)propylamino)phenyl)-5-(trifluoromethyl)pyridin-2(1H)-one], the figures for the IC50 in the assay on NIH3T3 fibroblasts (48 hours after administration) and in the assay on NIH3T3 fibroblasts (72 hours after administration) were 238 µM and 65 µM, respectively. The Multiple with NIH3T3 fibroblasts (48 hours) came out at 18.60; in the assay with NIH3T3 fibroblasts (72 hours), 54.0.

On to `CCCCOCCCNc1ccc(-n2cc(C(F)(F)F)ccc2=O)c(Cl)c1` [Compound 4, 1-(4-((3-butoxypropyl)amino)-2-chlorophenyl)-5-(trifluoromethyl) pyridin-2(1H)-one], for which the Multiple in the assay with NIH3T3 fibroblasts (48 hours) was found to be 6.31; with NIH3T3 fibroblasts (72 hours), 11.31. The figures for the concentration for half-maximal inhibition (IC50) in the assay on NIH3T3 fibroblasts (setting [2]) and in the assay with NIH3T3 fibroblasts (setting [3]) were 702 µM and 311 µM, respectively.

As to `O=c1ccc(C(F)(F)F)cn1-c1ccc(NCCO)cc1Cl` [Compound 5, 1-(2-chloro-4-((2-hydroxyethyl)amino)phenyl)-5-(trifluoromethyl)pyridin-2(1H)-one], the Multiple in the assay on NIH3T3 fibroblasts (48 hours) stood at 3.21; in the assay with NIH3T3 fibroblasts (72 hours), 5.57. The half-maximal inhibitory concentration (IC50) in the assay on NIH3T3 fibroblasts (setting [2]) was 1380 µM; in the assay on NIH3T3 fibroblasts (setting [3]), 632 µM.

Turning to `O=c1ccc(C(F)(F)F)cn1-c1ccc(N(CCO)CCO)cc1Cl` [Compound 6, 1-(4-(N,N-(2-hydroxyethyl)amino)-2-chlorophenyl)-5-(trifluoromethyl)pyridin-2(1H)-one], the Multiple is 6.91 with NIH3T3 fibroblasts (48 hours) and 6.00 in the assay on NIH3T3 fibroblasts (72 hours). Besides, the IC50 turned out to be 641 µM with NIH3T3 fibroblasts (setting [2]) and 587 µM in the assay on NIH3T3 fibroblasts (setting [3]).

Turning to `Cl.O=c1ccc(C(F)(F)F)cn1-c1ccc(NCCCN2CCCCC2)cc1Cl` [Compound 7, 1-(2-chloro-4-(((3-piperidin-1-yl)propyl)amino)phenyl)-5-(trifluoromethyl)pyridin-2(1H)-one hydrochloride], the values for the Multiple in the assay on NIH3T3 fibroblasts (48 hours) and in the assay with NIH3T3 fibroblasts (72 hours) were 17.09 and 71.17, respectively. Further, the values for the IC50 in the assay with NIH3T3 fibroblasts (setting [2]) and in the assay on NIH3T3 fibroblasts (setting [3]) were 259 µM and 49 µM, respectively.

Turning to `O=c1ccc(C(F)(F)F)cn1-c1ccc(NCCOCCO)cc1Cl` [Compound 8, 1-(2-chloro-4-((2-(2-hydroxyethoxy)ethyl)amino)phenyl)-5-(trifluoromethyl)pyridin-2(1H)-one], the values for the Multiple in the assay on NIH3T3 fibroblasts (48 hours) and in the assay with NIH3T3 fibroblasts (72 hours) were 9.09 and 10.59, respectively. For the same compound, the IC50 was determined as 487 µM with NIH3T3 fibroblasts (setting [2]) and 332 µM in the assay on NIH3T3 fibroblasts (setting [3]).

Regarding `O=c1ccc(C(F)(F)F)cn1-c1ccc(NCCN2CCCCC2)cc1Cl` [Compound 10, 1-(2-chloro-4-((2-(piperidyl-1-yl)ethyl)amino)phenyl)-5-(trifluoromethyl)pyridin-2(1H)-one], the Multiple in the assay with NIH3T3 fibroblasts (48 hours) turned out to be 20.73; with NIH3T3 fibroblasts (72 hours), 56.50. The IC50 worked out at 214 µM with NIH3T3 fibroblasts (setting [2]) and 62 µM with NIH3T3 fibroblasts (setting [3]).

With `O=c1ccc(C(F)(F)F)cn1-c1ccc(NCCN2CCOCC2)cc1Cl` [Compound 11, 1-(2-chloro-4-((2-morpholinylethyl)amino)-phenyl)-5-(trifluoromethyl)pyridin-2(1H)-one], the Multiple with NIH3T3 fibroblasts (48 hours) was found to be 25.50; in the assay with NIH3T3 fibroblasts (72 hours), 62.50. In addition, the values for the IC50 with NIH3T3 fibroblasts (setting [2]) and with NIH3T3 fibroblasts (setting [3]) were 174 µM and 56 µM, respectively.

Take `CN1CCN(CCNc2ccc(-n3cc(C(F)(F)F)ccc3=O)c(Cl)c2)CC1` [Compound 12, 1-(2-chloro-4-((2-(4-methylpiperazin-1-yl)ethyl)amino)phenyl)-5-(trifluoromethyl)pyridin-2(1H)-one]: the Multiple in the assay on NIH3T3 fibroblasts (48 hours) came to 13.42; in the assay on NIH3T3 fibroblasts (72 hours) it was 33.33. Besides, the IC50 with NIH3T3 fibroblasts (setting [2]) is 330 µM; in the assay with NIH3T3 fibroblasts (setting [3]), 106 µM.

`O=c1ccc(C(F)(F)F)cn1-c1ccc(NCCN2CCN(CCO)CC2)cc1Cl` [Compound 13, 1-(2-chloro-4-((2-(4-(2-hydroxyethyl)piperazin-1-yl)ethyl)amino)-phenyl)-5-(trifluoromethyl)pyridin-2(1H)-one]: the Multiple worked out at 44.14 with NIH3T3 fibroblasts (48 hours) and 57.20 with NIH3T3 fibroblasts (72 hours). In addition, the IC50 was 100 µM in the assay on NIH3T3 fibroblasts (setting [2]) and 62 µM with NIH3T3 fibroblasts (setting [3]). Further, in assay [1] (15 mg/kg), the “Treatment effect on renal fibrosis (conclusion)” value is listed as “can effectively treat renal fibrosis”. Further, in assay [1] (15 mg/kg intragastric once per day for 12 days, SD rats n=3, model group 2.45 ± 0.38, normal group 0.25 ± 0.00, p < 0.01 vs model), the “Score (X ± S), renal interstitium collagens of left kidneys, MASSON staining” value is recorded as 1.52 ± 0.16^⋆⋆**. Further, the “Score (X ± S), index of renal tubulointerstitial lesions of obstruction kidneys, HE staining” value in assay [1] (15 mg/kg intragastric once per day for 12 days, SD rats n=3, model group 9.00 ± 1.00, normal group 0.33 ± 0.12, p < 0.01 vs model) is on record as 7.00 ± 0.35^⋆⋆**.

A word on the IC50: it is the concentration that inhibits the measured activity by half.
